Among the data in patent US9120774B2 (University of Kansas, priority 2009, dated 2015) are IC50 values, retold here.

Read-outs that look alike come from different tables or passages of the source. A value given as a limit tells only on which side of the number the result lay.

Type in all cases: cell-based
The test system of assay [1] is LNCaP (androgen sensitive prostate cancer cells). Nature of the assay: Anti-proliferation activity against LNCaP cells. The following applies: Homo sapiens, LNCaP, n = 3, read-out: IC50 LNCaP. How it is done: (§1) Upon completion of synthesis of library of compounds in Examples 23 and 24, the compounds were evaluated for anti-proliferative activity against SkBr3 (Her2 overexpressing breast cancer cells), MCF-7 (estrogen receptor positive breast cancer cells), HCT-116 (colon cancer cells characterized by wild-type p53), PL45 (pancreatic cancer cells), LNCaP (androgen sensitive prostate cancer cells) and PC-3 (androgen independent prostate cancer cells) cell lines. […] The monosubstituted benzamide variants improved activity.
Cells were maintained in a 1:1 mixture of Advanced DMEM/F12 (Gibco) supplemented with non-essential amino acids, L-glutamine (2 mM), streptomycin (500 ng/mL), penicillin (100 units/mL), and 10% FBS. Cells were grown to confluence in a humidified atmosphere (37° C., 5% CO2), seeded (2000/well, 100 μl) in 96-well plates, and allowed to attach overnight. Compound or GDA at varying concentrations in DMSO (1% DMSO final concentration) was added, and cells were returned to the incubator for 72 hours. At 72 hours, the number of viable cells was determined using an MTS/PMS cell proliferation kit (Promega) per the manufacturer's instructions. Cells incubated in 1% DMSO were used at 100% proliferation, and values were adjusted accordingly. IC50 values were calculated from separate experiments performed in triplicate using GraphPad Prism.

For assay [2], the system named is SkBr3 (Her2 overexpressing breast cancer cells). Nature of the assay: Anti-proliferation activity against SkBr3 cells (MTS/PMS). As to conditions: Homo sapiens, SK-BR-3, n = 3, read-out: IC50 SkBr3. The gist of the method: (§2)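 Viability after 72 h compound treatment (1% DMSO final, 37° C., 5% CO2) measured by MTS/PMS; plating density 2000 cells/well with overnight attachment.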

In assay [3] the test system is PC-3 (androgen independent prostate cancer cells). Nature of the assay: Anti-proliferation activity against PC-3 cells. The following applies: Homo sapiens, PC-3, n = 3, read-out: IC50 PC-3. As to the method: as §1
Cells were maintained in a 1:1 mixture of Advanced DMEM/F12 (Gibco) supplemented with non-essential amino acids, L-glutamine (2 mM), streptomycin (500 ng/mL), penicillin (100 units/mL), and 10% FBS. Cells were grown to confluence in a humidified atmosphere (37° C., 5% CO2), seeded (2000/well, 100 μl) in 96-well plates, and allowed to attach overnight. […] […] Cells incubated in 1% DMSO were used at 100% proliferation, and values were adjusted accordingly. IC50 values were calculated from separate experiments performed in triplicate using GraphPad Prism.

For assay [4], the system named is HCT-116 (colon cancer cells characterized by wild-type p53). Nature of the assay: Anti-proliferation activity against HCT-116 cells. As to conditions: Homo sapiens. How it is done: as §1
The subject of assay [5] is PL45 (pancreatic cancer cells). Nature of the assay: Anti-proliferation activity against PL45 cells. How it is done:
as §1

Assay [6] has as its system MCF-7 (estrogen receptor positive breast cancer cells). Nature of the assay: Anti-proliferation activity against MCF-7 cells (MTS/PMS). As to conditions: Homo sapiens, MCF7, n = 3, read-out: IC50 MCF-7. The gist of the method: as §2
Where [7] appears, read: Table 5, heterocyclic analogues.
The mark [8] stands for this setting: Table 5, heterocyclic analogues, n = 3.

Usually IC50 stands for the point on the concentration scale where inhibition reaches its midpoint. In the case of `CO[C@@H]1[C@@H](O)[C@@H](O)[C@H](Oc2ccc3cc(NC(=O)c4ccccc4)c(=O)oc3c2C)OC1(C)C` [compound 8, N-(7-((2R,3R,4S,5R)-3,4-Dihydroxy-5-methoxy-6,6-dimethyltetrahydro-2H-pyran-2-yloxy)-8-methyl-2-oxo-2H-chromen-3-yl)benzamide], the 50% inhibitory concentration (IC50) in assay [1] (Table 2) came out at 72 ± 4 µM; in assay [2] (Table 2), 21.5 ± 1.4 µM; in assay [3] (Table 2) it was 67.6 ± 9.7 µM; in assay [4] (Table 2, n = 3), 13 ± 2.1 µM; in assay [5] (Table 2, n = 3), 3.4 ± 0.6 µM; in assay [6] (Table 2), 20.6 ± 0.4 µM.
On to `COc1ccc(C(=O)Nc2cc3ccc(O[C@@H]4OC(C)(C)[C@H](OC)[C@@H](O)[C@H]4O)c(C)c3oc2=O)cc1` [compound 11, N-(7-((2R,3R,4S,5R)-3,4-Dihydroxy-5-methoxy-6,6-dimethyltetrahydro-2H-pyran-2-yloxy)-8-methyl-2-oxo-2H-chromen-3-yl)-4-methoxybenzamide], for which the IC50 was 7.3 ± 0.9 µM in assay [1] (Table 2); 15.6 ± 4.2 µM in assay [2] (Table 2); 17.1 ± 4.3 µM in assay [3] (Table 2); 15.9 ± 1.9 µM in assay [4] (Table 2, n = 3); 5.9 ± 2.1 µM in assay [5] (Table 2, n = 3); 10.3 ± 0.9 µM in assay [6] (Table 2).
Turning to `CO[C@@H]1[C@@H](O)[C@@H](O)[C@H](Oc2ccc3cc(NC(=O)c4ccccc4-c4ccccc4)c(=O)oc3c2C)OC1(C)C` [compound 12, N-(7-((2R,3R,4S,5R)-3,4-Dihydroxy-5-methoxy-6,6-dimethyltetrahydro-2H-pyran-2-yloxy)-8-methyl-2-oxo-2H-chromen-3-yl)biphenyl-2-carboxamide], the IC50 stood at 17.3 ± 5.2 µM in assay [1] (Table 2); 39.1 ± 4.1 µM in assay [2] (Table 2); 65.3 ± 5.6 µM in assay [3] (Table 2); 32.7 ± 1.6 µM in assay [4] (Table 2, n = 3); 14.4 ± 2.4 µM in assay [5] (Table 2, n = 3); 18.9 ± 7 µM in assay [6] (Table 2).
For the compound `CO[C@@H]1[C@@H](O)[C@@H](O)[C@H](Oc2ccc3cc(NC(=O)c4cccc(-c5ccccc5)c4)c(=O)oc3c2C)OC1(C)C` [compound 13, N-(7-((2R,3R,4S,5R)-3,4-Dihydroxy-5-methoxy-6,6-dimethyltetrahydro-2H-pyran-2-yloxy)-8-methyl-2-oxo-2H-chromen-3-yl)biphenyl-3-carboxamide], the IC50 in assay [1] (Table 2) came out at 1.6 ± 0.5 µM; in assay [2] (Table 2) it was 13 ± 1.4 µM; in assay [3] (Table 2), 11.6 ± 1.4 µM; in assay [4] (Table 2, n = 3), 12.8 ± 2.3 µM; in assay [5] (Table 2, n = 3), 1.6 ± 0.2 µM; in assay [6] (Table 2), 18 ± 3.8 µM.
On to `CO[C@@H]1[C@@H](O)[C@@H](O)[C@H](Oc2ccc3cc(NC(=O)c4ccc(-c5ccccc5)cc4)c(=O)oc3c2C)OC1(C)C` [compound 14, N-(7-((2R,3R,4S,5R)-3,4-Dihydroxy-5-methoxy-6,6-dimethyltetrahydro-2H-pyran-2-yloxy)-8-methyl-2-oxo-2H-chromen-3-yl)biphenyl-4-carboxamide], for which the IC50 in assay [1] (Table 2) came out at 44.9 ± 31.6 µM; in assay [2] (Table 2), 16.3 ± 1.6 µM; in assay [3] (Table 2) it was 19.3 ± 5.1 µM; in assay [4] (Table 2, n = 3), 3.6 ± 2 µM; in assay [5] (Table 2, n = 3), 1.6 ± 0.2 µM; in assay [6] (Table 2), 8.1 ± 6 µM.
On to `CO[C@@H]1[C@@H](O)[C@@H](O)[C@H](Oc2ccc3cc(NC(=O)c4ccc([N+](=O)[O-])cc4)c(=O)oc3c2C)OC1(C)C` [compound 17, N-(7-((2R,3R,4S,5R)-3,4-Dihydroxy-5-methoxy-6,6-dimethyltetrahydro-2H-pyran-2-yloxy)-8-methyl-2-oxo-2H-chromen-3-yl)-4-nitrobenzamide], for which the IC50 in assay [1] (Table 2) is 69.3 ± 4.1 µM; in assay [2] (Table 2), greater than 100 µM; in assay [3] (Table 2) it was greater than 100 µM; in assay [4] (Table 2, n = 3), greater than 100 µM; in assay [5] (Table 2, n = 3), greater than 100 µM; in assay [6] (Table 2), greater than 100 µM.
On to `CO[C@@H]1[C@@H](O)[C@@H](O)[C@H](Oc2ccc3cc(NC(=O)c4ccccc4N)c(=O)oc3c2C)OC1(C)C` [compound 18, 2-Amino-N-(7-((2R,3R,4S,5R)-3,4-dihydroxy-5-methoxy-6,6-dimethyltetrahydro-2H-pyran-2-yloxy)-8-methyl-2-oxo-2H-chromen-3-yl)benzamide], for which the IC50 in assay [1] (Table 2) was 12.7 ± 0.8 µM; in assay [2] (Table 2), 17.7 ± 1.4 µM; in assay [3] (Table 2), 57.9 ± 10.1 µM; in assay [4] (Table 2, n = 3), 14.4 ± 0.8 µM; in assay [5] (Table 2, n = 3), 6.2 ± 1.3 µM; in assay [6] (Table 2) it was 17.2 ± 3.3 µM.
`CO[C@@H]1[C@@H](O)[C@@H](O)[C@H](Oc2ccc3cc(NC(=O)c4ccc(N)cc4)c(=O)oc3c2C)OC1(C)C` [compound 20, 4-Amino-N-(7-((2R,3R,4S,5R)-3,4-dihydroxy-5-methoxy-6,6-dimethyltetrahydro-2H-pyran-2-yloxy)-8-methyl-2-oxo-2H-chromen-3-yl)benzamide]: the IC50 in assay [1] (Table 2) was determined as 26.4 ± 15.8 µM; in assay [2] (Table 2), 33.1 ± 1.1 µM; in assay [3] (Table 2), 65.2 ± 2.8 µM; in assay [4] (Table 2, n = 3), 24.4 ± 5.8 µM; in assay [5] (Table 2, n = 3) it was 8.4 ± 0.3 µM; in assay [6] (Table 2), 14 ± 0.5 µM.
Take `CO[C@@H]1[C@@H](O)[C@@H](O)[C@H](Oc2ccc3cc(NS(=O)(=O)c4ccccc4)c(=O)oc3c2C)OC1(C)C` [compound 21, N-(7-((2R,3R,4S,5R)-3,4-Dihydroxy-5-methoxy-6,6-dimethyltetrahydro-2H-pyran-2-yloxy)-8-methyl-2-oxo-2H-chromen-3-yl)benzenesulfonamide]: the IC50 in assay [1] (Table 3) was greater than 100 µM; in assay [2] (Table 3) it was greater than 100 µM; in assay [3] (Table 3) it was greater than 100 µM; in assay [4] (Table 3, n = 3), greater than 100 µM; in assay [5] (Table 3, n = 3), greater than 100 µM; in assay [6] (Table 3), greater than 100 µM.
On to `CO[C@@H]1[C@@H](O)[C@@H](O)[C@H](Oc2ccc3cc(NC(=O)Cc4ccccc4)c(=O)oc3c2C)OC1(C)C` [compound 22, N-(7-((2R,3R,4S,5R)-3,4-Dihydroxy-5-methoxy-6,6-dimethyltetrahydro-2H-pyran-2-yloxy)-8-methyl-2-oxo-2H-chromen-3-yl)-2-phenylacetamide], for which the IC50 in assay [1] (Table 3) was determined as 10.4 ± 0.2 µM; in assay [2] (Table 3), 21.4 ± 2.2 µM; in assay [3] (Table 3) it was 43.3 ± 13.4 µM; in assay [4] (Table 3, n = 3), 13.2 ± 0.6 µM; in assay [5] (Table 3, n = 3) it was 8.5 ± 1.7 µM; in assay [6] (Table 3) it was 16.4 ± 0.4 µM.
For the compound `CO[C@@H]1[C@@H](O)[C@@H](O)[C@H](Oc2ccc3cc(NC(=O)c4ccncc4)c(=O)oc3c2C)OC1(C)C` [compound 42, N-(7-((2R,3R,4S,5R)-3,4-Dihydroxy-5-methoxy-6,6-dimethyltetrahydro-2H-pyran-2-yloxy)-8-methyl-2-oxo-2H-chromen-3-yl)isonicotinamide], the IC50 is 34.8 ± 16 µM in assay [1] (setting [7]); greater than 100 µM in assay [2] (setting [7]); greater than 100 µM in assay [4] (setting [8]); 19.2 ± 2.5 µM in assay [5] (setting [8]); greater than 100 µM in assay [6] (setting [7]).
With `CO[C@@H]1[C@@H](O)[C@@H](O)[C@H](Oc2ccc3cc(NC(=O)c4cc5ccccc5o4)c(=O)oc3c2C)OC1(C)C` [compound 43, N-(7-((2R,3R,4S,5R)-3,4-Dihydroxy-5-methoxy-6,6-dimethyltetrahydro-2H-pyran-2-yloxy)-8-methyl-2-oxo-2H-chromen-3-yl)benzofuran-2-carboxamide], the IC50 in assay [1] (setting [7]) was 7.9 ± 1.1 µM; in assay [3] (setting [7]), 18.8 ± 4.4 µM; in assay [4] (setting [8]), 9.6 ± 0.3 µM; in assay [5] (setting [8]) it was 3.8 ± 0.4 µM; in assay [6] (setting [7]) it was 28.6 ± 4.1 µM.
On to `CO[C@@H]1[C@@H](O)[C@@H](O)[C@H](Oc2ccc3cc(NC(=O)c4cc5ccccc5s4)c(=O)oc3c2C)OC1(C)C` [compound 44, N-(7-((2R,3R,4S,5R)-3,4-Dihydroxy-5-methoxy-6,6-dimethyltetrahydro-2H-pyran-2-yloxy)-8-methyl-2-oxo-2H-chromen-3-yl)benzo[b]thiophene-2-carboxamide], for which the half-inhibitory concentration (IC50) in assay [1] (setting [7]) is greater than 100 µM; in assay [3] (setting [7]), 7.4 ± 2.1 µM; in assay [4] (setting [8]), 78.9 ± 3.5 µM; in assay [5] (setting [8]) it was 33.2 ± 0.7 µM; in assay [6] (setting [7]) it was 96.3 ± 3.7 µM.
